Substitutions are numbered along the chain they refer to. Read-outs that look alike come from different tables or passages of the source.
What was measured:
Assay type in all cases: cell-based
[1] = target: T1, NaChBac (voltage-gated sodium channel from Bacillus halodurans) (Halalkalibacterium halodurans, UniProt Q9KCR8)
T1 sequence (Q9KCR8 1-274): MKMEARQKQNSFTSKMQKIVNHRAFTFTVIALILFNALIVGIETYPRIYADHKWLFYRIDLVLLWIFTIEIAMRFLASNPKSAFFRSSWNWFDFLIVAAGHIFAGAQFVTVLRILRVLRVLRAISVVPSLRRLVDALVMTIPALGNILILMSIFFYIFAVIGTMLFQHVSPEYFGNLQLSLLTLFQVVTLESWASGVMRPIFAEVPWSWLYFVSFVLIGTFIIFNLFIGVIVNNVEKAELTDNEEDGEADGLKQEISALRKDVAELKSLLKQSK

[2] = target: T2, NaChBac (voltage-gated sodium channel from Bacillus halodurans) (Halalkalibacterium halodurans, UniProt Q9KCR8, T220A); assay: patch clamp in HEK-293 cells, peak current concentration response
T2 sequence (Q9KCR8 1-274 T220A): T1 sequence (Q9KCR8 1-274) with T220A

[3] = target: T1, NaChBac (voltage-gated sodium channel from Bacillus halodurans); remark: listed apart in the source

IC50 [1] [µM] | SMILES | IC50 [2] [µM] | IC50 [3] [µM]
650 | CCOC(=O)c1ccc(N)cc1 [benzocaine] | – | –
– | CCN(CC)CC(=O)Nc1c(C)cccc1C [lidocaine] | 765 ± 76.3 | ~260
– | COc1ccccc1OCC(O)CN1CCN(CC(=O)Nc2c(C)cccc2C)CC1 (stereo not shown) [ranolazine] | – | ~60
